Measurements published in US12123010B2, “Plants having increased tolerance to herbicides” (BASF SE, priority 2017, dated 2024).
Several values for one entry are separate records, joined by “and”; a condition that tells them apart may be missing. Equal entries are not always repeated.

Key:
[1] = tested on: Variant PPO Enzyme L397Q, F420M (Amaranthus PPO2); assay type: biochemical; details: variant L397Q, F420M vs wild type
[2] = tested on: Variant PPO Enzyme R128A, F420V (Amaranthus PPO2); experiment: biochemical; assay type: biochemical; details: variant R128A, F420V vs wild type
[3] = tested on: Transgenic T2 Arabidopsis plants harboring PPO inhibitor tolerance trait; experiment: Lab based germination assay in 48-well plates (Table i); assay type: in vivo, Arabidopsis thaliana; details: in comparison to wild type plants
[4] = tested on: Variant PPO Enzyme F420M (Amaranthus PPO2); experiment: biochemical; assay type: biochemical; details: variant F420M vs wild type
[5] = tested on: Variant PPO Enzyme R128A, F420M (Amaranthus PPO2); assay type: biochemical; details: variant R128A, F420M vs wild type
[6] = tested on: Variant PPO Enzyme F420V (Amaranthus PPO2); assay type: biochemical; details: variant F420V vs wild type
[7] = target: Wild Type PPO Enzyme (Amaranthus PPO2, SEQ ID NO: 1) (Amaranthus tuberculatus, UniProt Q0NZW9); experiment: PPO enzyme assay (recombinant), wild type; assay type: biochemical
[8] = tested on: Transgenic T2 Arabidopsis plants and ARBTH WT MC24 non-transgenic; experiment: Greenhouse post spray test, injury 14 DAT (Tables ii, iii); assay type: in vivo, Arabidopsis thaliana;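 further: value is percent injury to the sprayed plants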
[9] = tested on: Transgenic T2 or T3 Soybean plants harbouring PPO inhibitor tolerance trait and Jake non transgenic; experiment: Soybean greenhouse post spray, injury score 7 DAT; details: in vivo
Protocol: Soybean cv Jake is transformed as previously described by Siminszky et al., Phytochem Rev. 5:445-458 (2006). After regeneration, transformants are transplanted to soil in small pots, placed in growth chambers (16 hr day/8 hr night; 25° C. day/23° C. night; 65% relative humidity; 130-150 microE m-2 s-1) and subsequently tested for the presence of the T-DNA via Taqman analysis. After a few weeks, healthy, transgenic positive, single copy events are transplanted to larger pots and allowed to grow in the growth chamber. An optimal shoot for cutting is about 3-4 inches tall, with at least two nodes present. Each cutting is taken from the original transformant (mother plant) and dipped into rooting hormone powder (indole-3-butyric acid, IBA). The cutting is then placed in oasis wedges inside a bio-dome. The mother plant is taken to maturity in the greenhouse and harvested for seed. Wild type cuttings are also taken simultaneously to serve as negative controls. The cuttings are kept in the bio-dome for 5-7 days and then transplanted to 3 inch pots and then acclimated in the growth chamber for two more days. Subsequently, the cuttings are transferred to the greenhouse, acclimated for approximately 4 days prior to spray. […] Herbicide injury evaluations are taken at 2, 7, 14 and 21 days after treatment. […]

[10] = tested on: Variant PPO Enzyme L397Q, F420V (Amaranthus PPO2); assay type: biochemical; details: variant L397Q, F420V vs wild type
[11] = tested on: Variant PPO Enzyme L397Q (Amaranthus PPO2); assay type: biochemical; details: variant L397Q vs wild type

Sequence of Wild Type PPO Enzyme (Amaranthus PPO2, SEQ ID NO: 1) (Q0NZW9 1-534): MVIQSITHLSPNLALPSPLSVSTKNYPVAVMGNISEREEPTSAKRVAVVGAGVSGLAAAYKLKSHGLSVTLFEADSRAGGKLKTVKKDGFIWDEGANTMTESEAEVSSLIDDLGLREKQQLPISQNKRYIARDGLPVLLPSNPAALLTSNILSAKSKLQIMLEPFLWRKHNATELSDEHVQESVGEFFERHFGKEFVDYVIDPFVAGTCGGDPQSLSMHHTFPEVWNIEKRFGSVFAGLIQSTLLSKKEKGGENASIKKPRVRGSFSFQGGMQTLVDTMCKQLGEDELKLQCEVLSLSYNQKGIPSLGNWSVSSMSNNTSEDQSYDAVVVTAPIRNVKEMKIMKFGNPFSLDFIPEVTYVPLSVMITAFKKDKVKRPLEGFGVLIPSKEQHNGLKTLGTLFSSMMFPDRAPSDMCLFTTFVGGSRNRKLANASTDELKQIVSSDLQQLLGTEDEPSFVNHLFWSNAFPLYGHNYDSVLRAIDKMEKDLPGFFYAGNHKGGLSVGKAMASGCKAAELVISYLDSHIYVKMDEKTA

SMILES: CCOC(=O)COc1ncccc1Oc1cc(-n2c(=O)cc(C(F)(F)F)n(C)c2=O)c(F)cc1Cl [Uracilpyridine 1, ethyl 2-[[3-[2-chloro-4-fluoro-5-[3-methyl-2,6-dioxo-4-(trifluoromethyl)pyrimiclin-1-yl]phenoxy]-2-pyridyl]oxy]acetate]
- Tolerance Factor (R/S) [1]: 2418
- Tolerance Factor (R/S) [2]: 915 and 1579
- Tolerance Factor ([3]; construct ARBTH_PPO1_S305L_Y426M (Arabidopsis thaliana)): 250
- Tolerance Factor ([3]; construct ARBTH_PPO1_WT (Arabidopsis thaliana)): 50
- Tolerance Factor (R/S) [4]: 215 and 265
- Tolerance Factor (R/S) [5]: 347
- Tolerance Factor (R/S) [6]: 374
- IC50 [7]: 0.177 nM
- injury (%) ([8]; Table ii, ALOMY_PPO2_R137L_F438V event F, 50 g ai/ha): 20%
- injury (%) ([8]; Table ii, ALOMY_PPO2_R137L_F438V event F, 100 g ai/ha): 33%
- injury (%) ([8]; Table ii, ALOMY_PPO2_R137L_F438V event F, 200 g ai/ha): 65%
- injury (%) ([8]; Table ii, ALOMY_PPO2_R137L_F438V event G, 50 g ai/ha): 5%
- injury (%) ([8]; Table ii, ALOMY_PPO2_R137L_F438V event G, 100 g ai/ha): 75%
- injury (%) ([8]; Table ii, ALOMY_PPO2_R137L_F438V event G, 200 g ai/ha): 28%
- injury (%) ([8]; Table ii, ALOMY_PPO2_TP_AMATU_PPO2_R128M_F420I event R, 50 g ai/ha): 60%
- injury (%) ([8]; Table ii, ALOMY_PPO2_TP_AMATU_PPO2_R128M_F420I event R, 100 g ai/ha): 92%
- injury (%) ([8]; Table ii, ALOMY_PPO2_TP_AMATU_PPO2_R128M_F420I event R, 200 g ai/ha): 84%
- injury (%) ([8]; Table ii, AMATU_PPO2_R128A_F420M event Q, 50 g ai/ha): 55%
- injury (%) ([8]; Table ii, AMATU_PPO2_R128A_F420M event Q, 100 g ai/ha): 60%
- injury (%) ([8]; Table ii, AMATU_PPO2_R128A_F420M event Q, 200 g ai/ha): 75%
- injury (%) ([8]; Table ii, AMATU_PPO2_R128M_F420I event K, 50 g ai/ha): 60%
- injury (%) ([8]; Table ii, AMATU_PPO2_R128M_F420I event K, 100 g ai/ha): 73%
- injury (%) ([8]; Table ii, AMATU_PPO2_R128M_F420I event K, 200 g ai/ha): 75%
- injury (%) ([8]; Table ii, AMATU_PPO2_TP_hemG event R, 50 g ai/ha): 60%
- injury (%) ([8]; Table ii, AMATU_PPO2_TP_hemG event R, 100 g ai/ha): 63%
- injury (%) ([8]; Table ii, AMATU_PPO2_TP_hemG event R, 200 g ai/ha): 53%
- injury (%) ([8]; Table ii, ARBTH WT MC24 non-transgenic, 50 g ai/ha + 1% MSO): 100%
- injury (%) ([8]; Table ii, ARBTH WT MC24 non-transgenic, 100 g ai/ha + 1% MSO): 100%
- injury (%) ([8]; Table ii, ARBTH WT MC24 non-transgenic, 200 g ai/ha + 1% MSO): 100%
- injury (%) ([8]; Table iii, ALOMY_PPO2_R137L_F438M (unnamed lines), 50 g ai/ha): 0%
- injury (%) ([8]; Table iii, AMATU_PPO2_L397Q_F420V (unnamed lines), 50 g ai/ha): 40% and 75%
- injury (%) ([8]; Table iii, AMATU_PPO2_L397Q_F420V (unnamed lines), 100 g ai/ha): 85% and 65%
- injury (%) ([8]; Table iii, AMATU_PPO2_R128A_F420I (unnamed lines), 50 g ai/ha): 60% and 70% and 75%
- injury (%) ([8]; Table iii, AMATU_PPO2_R128A_F420I (unnamed lines), 100 g ai/ha): 95% and 65% and 80% and 60%
- injury (%) ([8]; Table iii, AMATU_PPO2_R128A_F420L (unnamed lines), 100 g ai/ha): 60% and 90% and 95% and 80%
- injury (%) ([8]; Table iii, AMATU_PPO2_R128A_F420V (unnamed lines), 50 g ai/ha): 95% and 90% and 55% and 65%
- injury (%) ([8]; Table iii, AMATU_PPO2_R128A_F420V (unnamed lines), 100 g ai/ha): 80% and 95% and 98%
- injury (%) ([8]; Table iii, ARBTH WT MC 24 (non-transgenic), 50 g ai/ha + 1% MSO): 100%
- injury (%) ([8]; Table iii, ARBTH WT MC 24 (non-transgenic), 100 g ai/ha + 1% MSO): 100%
- injury (0-9) [9]: 3 and 2 and 4 and 0 (No Injury)
- Tolerance Factor (R/S) [10]: 12739
- Tolerance Factor (R/S) [11]: 13
